Results published in US20250345277A1, “Ionizable Liposome, Preparation Thereof, and Application Thereof in Gene Delivery” (MAXIRNA (ZHEJIANG) TECHNOLOGY CO. LTD., priority 2021, published 2025).

What was measured:
[1] = Size and polydispersity index PDI of lipid nanoparticles (Malvern Zetasizer Nano ZS); assay type: physicochemical; conditions: LNP ionizable lipid/DOPE/cholesterol/DSPE-PEG2000 35/16/46.5/2.5 mol% encapsulating EGFP mRNA; for Particle Size: in nm (unit assumed)
In short: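 LNPs of ionizable lipid/DOPE/cholesterol/DSPE-PEG2000 (35/16/46.5/2.5 mol %) encapsulating EGFP mRNA, made by microfluidic mixing (ethanol lipid:citrate pH 6.1 aqueous 1:3 by volume; lipid:mRNA ~10:1 w/w). Buffer-exchanged into DPBS, 0.2 μm filtered. Size and PDI by dynamic light scattering at […] backscatter angle.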

[2] = Entrapment efficiency of LNP preparation encapsulating EGFP mRNA; assay type: physicochemical; conditions: LNP ionizable lipid/DOPE/cholesterol/DSPE-PEG2000 35/16/46.5/2.5 mol% encapsulating EGFP mRNA
In short: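 LNPs of ionizable lipid/DOPE/cholesterol/DSPE-PEG2000 (35/16/46.5/2.5 mol %) made by microfluidic mixing of ethanol lipids with EGFP mRNA in 20 mM citrate pH 6.1 (1:3 by volume), lipid:mRNA about 10:1 by weight. Buffer exchanged to DPBS by ultrafiltration, then 0.2 μm filtered; mRNA 0.002–0.5 mg/mL.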

PBMC cells = assay: In vitro transfection of PBMC cells with EGFP mRNA LNP preparation (flow cytometry); assay type: cell-based; set-up: Cell Viability: concentration or dose not given beside the values; conditions: PBMCs; for Cell Viability / Positive Rate (EGFP): LNP preparation added with ApoE4; for Fluorescence Intensity: with ApoE4, EGFP mRNA expression level normalized based on the sample with the highest fluorescence intensity
Excerpt: The description is based on peripheral blood mononuclear cells PBMC (Shanghai Oribiotech Co., Ltd.), human peripheral blood leukemia T cell Jurkat (ATCC), tumor infiltrating lymphocyte TIL (isolated from resected tumor tissue of a liver cancer patient, the preparation method refers to CN114763530A), mouse bone marrow-derived dendritic cells DC2.4 (Cell Bank of the Chinese Academy of Sciences), and Chinese hamster ovary cells CHO (ATCC) were used as verified cell lines for liposome transfection. PBMC, Jurkat, and TIL cells grew in suspension, while DC2.4 and CHO cells grew by adherent culture. All the operation steps of cell culture must strictly abide by the prescribed procedures, and sterile reagents is used to perform aseptic operations under a sterile workbench. The main steps are as follows: • 1) Cell recovery: the preserved cell cryopreservation solution was taken out of the −80° C. refrigerator, and was immediately put in a 37° C. water bath for rapid and continuous shaking, and was completely melted within one minute. Fresh medium was added to the 15 mL centrifuge tube in advance, and the cell solution was added to the centrifuge tube in a biological safety cabinet. A centrifuge tube of the same quality was taken and placed symmetrically in a centrifuge, centrifuged at a low speed at 1200 rpm for 5 min. After centrifugation, the supernatant was removed, and an appropriate amount of medium was slowly added along the tube wall. After the cells were evenly dispersed by blowing gently, the cell suspension was pipette and added to the culture bottle prepared in advance. The state and distribution of the cells in the early stage of recovery were observed under a microscope. The culture bottle was placed in a 5% CO2 incubator and incubated at 37° C., and the recovery time was recorded. • 2) Cell subculture: Under the microscope, if the cell density in the field of view reaches 80%-90%, the cells can be subcultured. Adherent cells need to be digested with trypsin. In order to avoid the residual serum in the culture medium to reduce the activity of trypsin, DPBS solution was added to wash once after removing the original culture medium. After remove the DPBS solution, trypsin was added to degrade the protein at the junction between cells. This separates the cells for further culture. The cells were gently shaked evenly and put into the incubator for digestion for 2 min. Immediately after the digestion was completed, an appropriate amount of medium was added to the original petri dish to terminate the digestion. Finally, the cells were carefully blowed off using a pipette and blowed until they are evenly dispersed, and then inoculated and subcultured at a certain ratio according to the experimental requirements.
• 1) Coating antibodies: 6-well plates were pre-coated, CD3 and CD28 antibodies were taken out from the −20° C. refrigerator, and melted for later use. The above two antibodies were added into the DPBS solution at a concentration of 5 µg/mL, mixed well, added into a six-well plate at 1 mL/well, put in a 37° C. incubator, and waited 4 hours for later use. • 2) PBMC recovery: the frozen PBMC cells were taken out from the −80° C. refrigerator, put in a 37° C. water bath to quickly thaw the cells, added to the preheated medium after thawing, centrifuged at 1200 rpm for 5 min, the supernatant was discarded, and an appropriate amount of AIMN-V medium with 500 U/ml IL-2 was added to resuspend PBMC. • 3) the DPBS coated with the antibody was removed with a pipette, the cell suspension was transferred to a six-well plate pre-coated with the antibody at 4 mL per well, placed in a 5% CO2 incubator at 37° C. for 3-5 days for activation and culture. • 4) According to the experimental arrangement, PBMC cells were plated on a 24-well plate 30 minutes in advance on the day of cell transfection. […]

Row | PDI [1] | Particle Size [1] | Entrapment Efficiency [2] | SMILES | Cell Viability (PBMC cells) | Positive Rate (EGFP) (PBMC cells) | Fluorescence Intensity (PBMC cells)
1 | 0.131 | 82.4 | 95.21% | CCCCCCCCCCCCC(O)CN(CCOCCN(CCOCCN(CC(O)CCCCCCCCCCCC)CC(O)CCCCCCCCCCCC)CCN1CCN(C)CC1)CC(O)CCCCCCCCCCCC (stereo not drawn) [F-C14] | 83.20% | 63.70% | 0.16
2 | 0.180 | 86.4 | 84.02% | CCCCCCCCCCCCC(O)CN(CCOCCOCCN(CCOCCOCCN(CC(O)CCCCCCCCCCCC)CC(O)CCCCCCCCCCCC)CCN1CCN(C)CC1)CC(O)CCCCCCCCCCCC (stereo not drawn) [G-C14] | 79.40% | 63.40% | 0.1
3 | 0.099 | 94.8 | 91.67% | CCCCCCCCCCCCC(O)CN(CCOCCOCCOCCN(CCOCCOCCOCCN(CC(O)CCCCCCCCCCCC)CC(O)CCCCCCCCCCCC)CCN1CCN(C)CC1)CC(O)CCCCCCCCCCCC (stereo not drawn) [H-C14] | 81.70% | 62.10% | 0.07
